Where a name gives a salt, the structure may show the parent alone.
How the values were obtained:
[1] = 289 mL solution component + 15.38 g powder, shaken 30 seconds
[2] = Stability of vancomycin hydrochloride powder in bottle (HPLC or cylinder plate analysis); conditions: for μg/mg vancomycin hydrochloride powder: Ex. 1, 10 g powder in HDPE bottle; for % Vancomycin B / % other impurities / % Monodechlorovancomycin: Ex. 1 powder in bottle; for Monodechlorovancomycin / Other Impurities / Vancomycin / Vancomycin B: Ex. 4, 15.38 g powder in bottle
Experimental: Stability may be assessed by cylinder-plate assay (the cylinder plate assay depends on the diffusion of the antibiotic from a vertical cylinder through a solidified agar layer in a petri dish or plate. The growth of the specific microorganisms inoculated into the agar is prevented in a circular area or zone around the cylinder containing the solution of the antibiotic), HPLC or any other known testing method.
The stability of vancomycin hydrochloride powder was evaluated. […] At various time points the powder in the bottle was analyzed for vancomycin hydrochloride, vancomycin B, other impurities, and monodechlorovancomycin by HPLC or cylinder plate analysis.
Vancomycin hydrochloride was further investigated in stability studies. […] At each given time point, vancomycin hydrochloride, vancomycin B, other impurities, and monodechlorovancomycin were assayed by HPLC or total microbiological activity was assessed by cylinder plate analysis.

[3] = Ex. 4, 3 months accelerated and ambient

CN[C@H](CC(C)C)C(=O)N[C@H]1C(=O)N[C@@H](CC(N)=O)C(=O)N[C@H]2C(=O)NC3C(=O)N[C@H](C(=O)N[C@H](C(=O)O)c4cc(O)cc(O)c4-c4cc3ccc4O)[C@H](O)c3ccc(c(Cl)c3)Oc3cc2cc(c3OC2OC(CO)C(O)C(O)C2OC2CC(C)(N)C(O)C(C)O2)Oc2ccc(cc2Cl)[C@H]1O (some centres unmarked) [vancomycin hydrochloride powder, vancomycin hydrochloride]
dissolution of powder in the solution component [1]: easily dissolves in the solution component | μg/mg vancomycin hydrochloride powder ([2]; 40° C./75% RH, 0 months): 1067 µg/mg | μg/mg vancomycin hydrochloride powder ([2]; 40° C./75% RH, 1 month): 1076 µg/mg | μg/mg vancomycin hydrochloride powder ([2]; 40° C./75% RH, 2 months): 1097 µg/mg | μg/mg vancomycin hydrochloride powder ([2]; 40° C./75% RH, 3 months): 1094 µg/mg | μg/mg vancomycin hydrochloride powder ([2]; 40° C./75% RH, 6 months): 1137 µg/mg | powder in bottle stability ([2]; Ex. 1, ambient and accelerated conditions (25° C./60% RH and 40°/75% RH)): stable | % Vancomycin B ([2]; 25° C./60% (RH), 0 months): 93.03% | % other impurities ([2]; 25° C./60% (RH), 0 months): <5.0% for all other | % Vancomycin B ([2]; 25° C./60% (RH), 3 months): 92.19% | % other impurities ([2]; 25° C./60% (RH), 3 months): <5.0% for all other | % Vancomycin B ([2]; 25° C./60% (RH), 6 months): 92.04% | % other impurities ([2]; 25° C./60% (RH), 6 months): <5.0% for all other | % Vancomycin B ([2]; 25° C./60% (RH), 9 months): 89.34% | % other impurities ([2]; 25° C./60% (RH), 9 months): <5.0% for all other | % Vancomycin B ([2]; 25° C./60% (RH), 12 months): 88.85% | % other impurities ([2]; 25° C./60% (RH), 12 months): <5.0% for all other | % Vancomycin B ([2]; 25° C./60% (RH), 18 months): 90.8% | % other impurities ([2]; 25° C./60% (RH), 18 months): <5.0% for all other | % Vancomycin B ([2]; 40° C./75% RH, 0 months): 93.03% | % other impurities ([2]; 40° C./75% RH, 0 months): <5.0% for all other | % Monodechlorovancomycin ([2]; 40° C./75% RH, 1 month): 1.0% | % Vancomycin B ([2]; 40° C./75% RH, 1 month): 91.87% | % other impurities ([2]; 40° C./75% RH, 1 month): <5.0% for all other | % Monodechlorovancomycin ([2]; 40° C./75% RH, 2 months): 1.3% | % Vancomycin B ([2]; 40° C./75% RH, 2 months): 89.14% | % other impurities ([2]; 40° C./75% RH, 2 months): <5.0% for all other | % Monodechlorovancomycin ([2]; 40° C./75% RH, 3 months): 1.6% | % Vancomycin B ([2]; 40° C./75% RH, 3 months): 88.22% | % other impurities ([2]; 40° C./75% RH, 3 months): <5.0% for all other | % Vancomycin B ([2]; 40° C./75% RH, 6 months): 81.84% | % other impurities ([2]; 40° C./75% RH, 6 months): <5.0% for all other | Monodechlorovancomycin ([2]; 25° C./60% RH, 0 months): 1.5% | Other Impurities ([2]; 25° C./60% RH, 0 months): <5.0% for | Vancomycin ([2]; 25° C./60% RH, 0 months): 1,112 mcg/mg | Vancomycin B ([2]; 25° C./60% RH, 0 months): 94.7% | Monodechlorovancomycin ([2]; 25° C./60% RH, 3 months): 1.1% | Other Impurities ([2]; 25° C./60% RH, 3 months): <5.0% for | Vancomycin ([2]; 25° C./60% RH, 3 months): 1,070 mcg/mg | Vancomycin B ([2]; 25° C./60% RH, 3 months): 91.8% | Monodechlorovancomycin ([2]; 40° C./60% RH, 0 months): 1.5% | Other Impurities ([2]; 40° C./60% RH, 0 months): <5.0% for all | Vancomycin ([2]; 40° C./60% RH, 0 months): 1,112 mcg/mg | Vancomycin B ([2]; 40° C./60% RH, 0 months): 94.7% | Monodechlorovancomycin ([2]; 40° C./60% RH, 1 month): 1.4% | Other Impurities ([2]; 40° C./60% RH, 1 month): <5.0% for all | Vancomycin ([2]; 40° C./60% RH, 1 month): 1,095 mcg/mg | Vancomycin B ([2]; 40° C./60% RH, 1 month): 91.3% | Monodechlorovancomycin ([2]; 40° C./60% RH, 2 months): 1.1% | Other Impurities ([2]; 40° C./60% RH, 2 months): <5.0% for all | Vancomycin ([2]; 40° C./60% RH, 2 months): 1,108 mcg/mg | Vancomycin B ([2]; 40° C./60% RH, 2 months): 90.8% | Monodechlorovancomycin ([2]; 40° C./60% RH, 3 months): 1.0% | Other Impurities ([2]; 40° C./60% RH, 3 months): <5.0% for all | Vancomycin ([2]; 40° C./60% RH, 3 months): 1,095 mcg/mg | Vancomycin B ([2]; 40° C./60% RH, 3 months): 87.6% | Monodechlorovancomycin, not exceeded [2, 3]: ≤ 4.7% | other impurities, not exceeded [2, 3]: ≤ 5.0% | powder stability ([2]; Ex. 4, accelerated and ambient (25±2° C./60±5% RH) conditions): remained stable through 3 months under accelerated stability conditions and 3 months under ambient

— patent publication US20210038515A1 (Azurity Pharmaceuticals, Inc., priority 2014, published 2021)
